Key:
[1] = Partition coefficient (logP); type: physicochemical; conditions: octanol/water
CCRF-CEM = test: Concentration required to produce 50 percent inhibition of HIV-1 infection in CEM cells; type: functional, cell-based; conditions: Homo sapiens
[2] = target: T1, Human immunodeficiency virus type 1 protease (Human immunodeficiency virus 1, UniProt Q72874); test: Tested for inhibition of HIV protease using fluorogenic substrate
[3] = Tested for cytotoxicity in HIV-1 infected human T-lymphocyte cell culture; type: functional; conditions: read-out: TC50 (the source's name)
[4] = target: T1, Human immunodeficiency virus type 1 protease; test: Tested for inhibition of HIV protease using fluorogenic substrate; insoluble

logP [1]	Ki [4]	SMILES	logP ([1]; read-out: logP)	EC50 (CCRF-CEM)	Ki [2]	CC50 [3]
		O=C(Nc1ccccc1C(=O)N[C@@H](Cc1ccccc1)[C@H](O)[C@H](O)[C@H](Cc1ccccc1)NC(=O)c1ccccc1NC(=O)OCc1ccccc1)OCc1ccccc1	8.16	> 100000 nM		
		Cc1nccnc1C(=O)Nc1ccccc1C(=O)N[C@@H](Cc1ccccc1)[C@H](O)[C@H](O)[C@H](Cc1ccccc1)NC(=O)c1ccccc1NC(=O)c1nccnc1C	5.66		> 10000 nM	
		O=C(Nc1ccccc1C(=O)N[C@@H](Cc1ccccc1)C[C@H](O)[C@H](Cc1ccccc1)NC(=O)c1ccccc1NC(=O)OCc1ccccn1)OCc1ccccn1	6.61	56 nM	0.07 nM	> 50000 nM
		O=C(COCc1ccccc1)Nc1ccccc1C(=O)N[C@@H](Cc1ccccc1)[C@H](O)[C@H](O)[C@H](Cc1ccccc1)NC(=O)c1ccccc1NC(=O)COCc1ccccc1	6.91		> 10000 nM	
		O=C(CO)Nc1ccccc1C(=O)N[C@@H](Cc1ccccc1)[C@H](O)[C@H](O)[C@H](Cc1ccccc1)NC(=O)c1ccccc1NC(=O)CO	2.52	60000 nM	20 nM	
		O=C(Nc1ccccc1C(=O)N[C@@H](Cc1ccccc1)C[C@H](O)[C@H](Cc1ccccc1)NC(=O)c1ccccc1NC(=O)OCc1cccnc1)OCc1cccnc1	5.86	140 nM	0.26 nM	
		O=C(Nc1ccccc1C(=O)N[C@@H](Cc1ccccc1)C[C@H](O)[C@H](Cc1ccccc1)NC(=O)c1ccccc1NC(=O)OCc1ccncc1)OCc1ccncc1	5.39	2600 nM	0.45 nM	
		O=CNc1ccccc1C(=O)N[C@@H](Cc1ccccc1)[C@H](O)[C@H](O)[C@H](Cc1ccccc1)NC(=O)c1ccccc1NC=O	4.89	900 nM	1.2 nM	
		O=C(Nc1ccccc1C(=O)N[C@@H](Cc1ccccc1)[C@H](O)[C@H](O)[C@H](Cc1ccccc1)NC(=O)c1ccccc1NC(=O)OCc1ccccn1)OCc1ccccn1	6.49	13 nM		35000 nM
9.34		O=C(Nc1c(Cl)cccc1C(=O)N[C@@H](Cc1ccccc1)[C@H](O)[C@H](O)[C@H](Cc1ccccc1)NC(=O)c1cccc(Cl)c1NC(=O)OCc1ccccc1)OCc1ccccc1				
		CC(=O)Nc1ccccc1C(=O)N[C@@H](Cc1ccccc1)[C@H](O)[C@H](O)[C@H](Cc1ccccc1)NC(=O)c1ccccc1NC(C)=O	4.32	> 100000 nM		
		O=C(Nc1ccccc1C(=O)N[C@@H](Cc1ccccc1)C[C@H](O)[C@H](Cc1ccccc1)NC(=O)c1ccccc1NC(=O)OCc1ccccc1)OCc1ccccc1	8.28			
	Insoluble	CCOC(=O)Nc1ccccc1C(=O)N[C@@H](Cc1ccccc1)[C@H](O)[C@H](O)[C@H](Cc1ccccc1)NC(=O)c1ccccc1NC(=O)OCC	6.14			
		O=C(Nc1ncccc1C(=O)N[C@@H](Cc1ccccc1)[C@H](O)[C@H](O)[C@H](Cc1ccccc1)NC(=O)c1cccnc1NC(=O)OCc1ccccc1)OCc1ccccc1	7.87			
		O=C(Nc1c(O)cccc1C(=O)N[C@@H](Cc1ccccc1)[C@H](O)[C@H](O)[C@H](Cc1ccccc1)NC(=O)c1cccc(O)c1NC(=O)OCc1ccccc1)OCc1ccccc1	7.96			
9.24		Cc1cccc(C(=O)N[C@@H](Cc2ccccc2)[C@H](O)[C@H](O)[C@H](Cc2ccccc2)NC(=O)c2cccc(C)c2NC(=O)OCc2ccccc2)c1NC(=O)OCc1ccccc1				
